In PMC7185411 (Biochimica et Biophysica Acta. Proteins and Proteomics, 2015):
Like-named read-outs stand apart in the source and are kept apart here. Marks after values point to notes of the source that are not given here. Residues, ends and D or L forms follow the SMILES beside them. *: point of attachment. Cbz = O=C(OCc1ccccc1)*

How the values were obtained:
[1] = molecular target: Chymotrypsin; assay: Binding of inhibitors to chymotrypsin; type: biochemical; settings: for KiIH/KiICHO or KiIH/KiICOCHO: fold increase in binding due to aldehyde or glyoxal group; for KiIH/KiICOOH: pH 7.2, ratio of Ki(obs) of peptide-H to peptide-COOH
[2] = molecular target: Chymotrypsin; settings: read-out: Ki(obs), cited from earlier work
[3] = cited from earlier work; for KH1: KH1 = KH1obs/[H2O], 25 °C
[4] = tested on: α-Chymotrypsin; settings: equilibrium constant for hemiketal formation; cited from earlier work
[5] = hydration of glyoxal keto group

Row | Compound | KiIH/KiICHO or KiIH/KiICOCHO [1] | fold tighter binding on replacing the α-carboxylate group with a hydrogen atom [1] | KiIH/KiICOOH [1] | KiIH/KiICHO or KiIH/KiICOCHO ([1]; listed as Z-APF-COCHO) | Ki ([2]; pH 7.2, 25 °C) [µM] | KH1 [3] | KH1(obs) [3, 5] | KHK [4] | Ki ([2]; 25 °C) [µM] | KH1(obs) ([3]; hydration of aldehyde group)
1 | C[C@H](NC(=O)OCc1ccccc1)C(=O)N1CCC[C@H]1C(=O)N[C@@H](Cc1ccccc1)C(=O)C=O [ZAPF-COCHO] | 2310 |  |  | 460–2300 | 0.0335 | 0.023 | 1.28 ^c | 5270 |  | 
2 | CC(NC(=O)OCc1ccccc1)C(=O)NC(C)C(=O)NC(Cc1ccccc1)C(=O)C=O (stereo not shown) [ZAAF-COCHO] | 455 |  |  |  | 0.365 | 0.0284 | 1.58 ^d | 1170 |  | 
3 | CC(NC(=O)OCc1ccccc1)C(=O)N1CCCC1C(=O)NC(C=O)Cc1ccccc1 (stereo not drawn) [ZAPF-H, Z-Ala-Pro-Phe-H] (Cbz-Ala-Pro-Phe-aldehyde; configuration not given here) |  |  |  |  | 77.4 ± 6.4 |  |  |  |  | 
4 | C[C@H](NC(=O)OCc1ccccc1)C(=O)N[C@@H](C)C(=O)N[C@@H](Cc1ccccc1)C(=O)C=O [ZAAF-CHO, Z-Ala-Ala-Phe-CHO] | 100 |  |  |  |  | 0.25 |  |  | 1.7 ± 0.4 | 13.9 ^e

More lines, main results first:

Row | KiIH/KiICHO or KiIH/KiICOCHO [1] | fold tighter binding on replacing the α-carboxylate group with a hydrogen atom [1] | KiIH/KiICOOH [1] | Compound | KiIH/KiICHO or KiIH/KiICOCHO ([1]; listed as Z-APF-COCHO) | Ki ([2]; pH 7.2, 25 °C) [µM] | KH1 [3] | KH1(obs) [3, 5] | KHK [4] | Ki ([2]; 25 °C) [µM] | KH1(obs) ([3]; hydration of aldehyde group)
5 |  | 3–4 fold | 0.31 | Cbz-Ala-Ala-Phe-OH [ZAAF-COOH] |  | 532 ± 50 |  |  |  |  | 
6 |  | 3–4 fold | 0.32 | Cbz-Ala-Pro-Phe-OH [ZAPF-COOH] |  | 241 ± 7 |  |  |  |  | 
